Reference: PubChem BioAssay (NCI)
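GI50: concentration for 50% inhibition of growth. TGI: total growth inhibition.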

Legend:
Test in all cases: NCI anticancer screen, dose series, 384-well format
SK-MEL-28 melanoma = tested on: SK-MEL-28 melanoma
MDA-MB-231 breast = tested on: MDA-MB-231 breast
MDA-MB-435 melanoma = tested on: MDA-MB-435 melanoma
MALME-3M melanoma = tested on: MALME-3M melanoma
HL-60(TB) leukemia = tested on: HL-60(TB) leukemia
PC-3 prostate = tested on: PC-3 prostate
NCI-H322M lung = tested on: NCI-H322M lung
SF-295 CNS = tested on: SF-295 CNS
SNB-75 CNS = tested on: SNB-75 CNS
SR leukemia = tested on: SR leukemia
SK-OV-3 ovarian = tested on: SK-OV-3 ovarian
DU-145 prostate = tested on: DU-145 prostate
SF-539 CNS = tested on: SF-539 CNS
K-562 leukemia = tested on: K-562 leukemia
U251 glioblastoma = tested on: U251 glioblastoma
UACC-62 melanoma = tested on: UACC-62 melanoma
A549 NSCLC = tested on: A549 NSCLC
UO-31 renal = tested on: UO-31 renal
CAKI-1 renal = tested on: CAKI-1 renal
ACHN renal = tested on: ACHN renal
SK-MEL-5 melanoma = tested on: SK-MEL-5 melanoma
T-47D breast = tested on: T-47D breast
OVCAR-4 ovarian = tested on: OVCAR-4 ovarian
HOP-92 NSCLC = tested on: HOP-92 NSCLC
BT-549 breast = tested on: BT-549 breast
NCI/ADR-RES ovarian = tested on: NCI/ADR-RES ovarian
KM12 colon = tested on: KM12 colon
HT29 colon = tested on: HT29 colon
786-0 renal = tested on: 786-0 renal
EKVX NSCLC = tested on: EKVX NSCLC
M14 melanoma = tested on: M14 melanoma
UACC-257 melanoma = tested on: UACC-257 melanoma
RXF 393 renal = tested on: RXF 393 renal
TK-10 renal = tested on: TK-10 renal
SF-268 CNS = tested on: SF-268 CNS
HOP-62 NSCLC = tested on: HOP-62 NSCLC
MCF7 breast = tested on: MCF7 breast
OVCAR-3 ovarian = tested on: OVCAR-3 ovarian
SW-620 colon = tested on: SW-620 colon
SK-MEL-2 melanoma = tested on: SK-MEL-2 melanoma
LOX IMVI melanoma = tested on: LOX IMVI melanoma
IGROV1 ovarian = tested on: IGROV1 ovarian
A498 renal = tested on: A498 renal
HCT-15 colon = tested on: HCT-15 colon
OVCAR-5 ovarian = tested on: OVCAR-5 ovarian
NCI-H460 NSCLC = tested on: NCI-H460 NSCLC
MOLT-4 leukemia = tested on: MOLT-4 leukemia
HCT-116 colon = tested on: HCT-116 colon
NCI-H226 lung = tested on: NCI-H226 lung
CCRF-CEM leukemia = tested on: CCRF-CEM leukemia
NCI-H23 lung = tested on: NCI-H23 lung
NCI-H522 lung = tested on: NCI-H522 lung
HS 578T breast = tested on: HS 578T breast
MDA-MB-468 breast = tested on: MDA-MB-468 breast
SNB-19 CNS = tested on: SNB-19 CNS
COLO 205 colon = tested on: COLO 205 colon
RPMI-8226 leukemia = tested on: RPMI-8226 leukemia
SN12C renal = tested on: SN12C renal

## NC(=O)c1ccc2nc(-c3ccc(Oc4ccc(Cl)cc4)cc3)[nH]c2c1
SK-MEL-28 melanoma
  GI50: 22.2 µM
  TGI: 80 µM
MDA-MB-231 breast
  GI50: 21.5 µM
  TGI: 46.1 µM
MDA-MB-435 melanoma
  GI50: 23.2 µM
  TGI: 68 µM
MALME-3M melanoma
  GI50: 17.1 µM
  TGI: 46.2 µM
HL-60(TB) leukemia
  GI50: 15 µM
  TGI: 28.4 µM
PC-3 prostate
  GI50: 16 µM
  TGI: 34.6 µM
NCI-H322M lung
  GI50: 15.3 µM
  TGI: 38.6 µM
SF-295 CNS
  GI50: 13.5 µM
  TGI: 30.8 µM
SNB-75 CNS
  GI50: 22.3 µM
  TGI: 58.1 µM
SR leukemia
  GI50: 3.77 µM
  TGI: 14.1 µM
SK-OV-3 ovarian
  GI50: 24.8 µM
  TGI: 58.7 µM
DU-145 prostate
  GI50: 15 µM
  TGI: 36.9 µM
SF-539 CNS
  GI50: 17.5 µM
  TGI: 45.1 µM
K-562 leukemia
  GI50: 7.87 µM
  TGI: 23.4 µM
U251 glioblastoma
  GI50: 12.3 µM
  TGI: 26.7 µM
UACC-62 melanoma
  GI50: 25.2 µM
  TGI: 75.1 µM
A549 NSCLC
  GI50: 20.2 µM
  TGI: > 100 µM
UO-31 renal
  GI50: 16.9 µM
  TGI: 44.5 µM
CAKI-1 renal
  GI50: 25.1 µM
  TGI: > 100 µM
ACHN renal
  GI50: 17.4 µM
  TGI: 45.1 µM
SK-MEL-5 melanoma
  GI50: 13.6 µM
  TGI: 28.1 µM
T-47D breast
  GI50: 11.6 µM
  TGI: 29.5 µM
OVCAR-4 ovarian
  GI50: 11.4 µM
  TGI: 37.1 µM
HOP-92 NSCLC
  GI50: 20 µM
  TGI: 80.3 µM
BT-549 breast
  GI50: 13.6 µM
  TGI: 30.7 µM
NCI/ADR-RES ovarian
  GI50: 23.5 µM
  TGI: 74.7 µM
KM12 colon
  GI50: 14.5 µM
  TGI: 31.3 µM
HT29 colon
  GI50: 10.5 µM
  TGI: 24.1 µM
786-0 renal
  GI50: 15 µM
  TGI: 37.1 µM
EKVX NSCLC
  GI50: 21.7 µM
  TGI: 68.4 µM
M14 melanoma
  GI50: 20.2 µM
  TGI: 50.3 µM
UACC-257 melanoma
  GI50: 16.2 µM
  TGI: 35.1 µM
RXF 393 renal
  GI50: 10.6 µM
  TGI: 27.7 µM
TK-10 renal
  GI50: 23.3 µM
  TGI: > 100 µM
SF-268 CNS
  GI50: 15.9 µM
  TGI: 56.2 µM
HOP-62 NSCLC
  GI50: 13.6 µM
  TGI: 33.9 µM
MCF7 breast
  GI50: 12.1 µM
  TGI: 27.1 µM
OVCAR-3 ovarian
  GI50: 12.1 µM
  TGI: 25.4 µM
SW-620 colon
  GI50: 15.4 µM
  TGI: 63.2 µM
SK-MEL-2 melanoma
  GI50: 33.7 µM
  TGI: 53.6 µM
LOX IMVI melanoma
  GI50: 26.2 µM
  TGI: 60.7 µM
IGROV1 ovarian
  GI50: 17.1 µM
  TGI: 53.2 µM
A498 renal
  GI50: 16.1 µM
  TGI: 31.6 µM
HCT-15 colon
  GI50: 16.9 µM
  TGI: 34.4 µM
OVCAR-5 ovarian
  GI50: 23.6 µM
  TGI: > 100 µM
NCI-H460 NSCLC
  GI50: 14.8 µM
  TGI: 29.1 µM
MOLT-4 leukemia
  GI50: 12.9 µM
  TGI: 25.8 µM
HCT-116 colon
  GI50: 16.8 µM
  TGI: 40.8 µM
NCI-H226 lung
  GI50: 22 µM
  TGI: 78.1 µM
CCRF-CEM leukemia
  GI50: 15.3 µM
  TGI: 29.7 µM
NCI-H23 lung
  GI50: 20.1 µM
  TGI: 76 µM
NCI-H522 lung
  GI50: 14.9 µM
  TGI: 46.2 µM
HS 578T breast
  GI50: 13.4 µM
  TGI: 30.7 µM
MDA-MB-468 breast
  GI50: 13.7 µM
  TGI: 34.5 µM
SNB-19 CNS
  GI50: 14.9 µM
  TGI: 35.4 µM
COLO 205 colon
  GI50: 33.8 µM
  TGI: 97.8 µM
RPMI-8226 leukemia
  GI50: 15.2 µM
  TGI: 29.1 µM
SN12C renal
  GI50: 17.4 µM
  TGI: 45.8 µM
